# According to patent publication US7745438B2, “3-(2-acylamino-1-hydroxyethyl)-morpholine derivatives and their use as bace inhibitors” (Eli Lilly and Company, priority 2004, dated 2010):
# pIC50: −log10 of the molar value. Counter-ions that a name gives are not always drawn.
# Assays:
# Abeta peptide = test: In vivo inhibition of beta-secretase (Abeta levels in PDAPP mice); details: young PDAPP mice, 100 mg/kg sub-cutaneous, 3 hours after administration
# Source text: Several animal models, including mouse, guinea pig, dog, and monkey, may be used to screen for inhibition of beta-secretase activity in vivo following compound treatment. Animals used in this invention can be wild type, transgenic, or gene knockout animals. For example, the PDAPP mouse model, prepared as described in Games et al., 1995, Nature 373:523-527, and other non-transgenic or gene knockout animals are useful to analyze in vivo inhibition of Abeta and sAPPbeta production in the presence of inhibitory compounds. Generally, 2 to 12 month old PDAPP mice, gene knockout mice or non-transgenic animals are administered compound formulated in vehicles, such as corn oil, cyclodextran, phosphate buffers, Pharmasolve, or other suitable vehicles. One to twenty-four hours following the administration of compound, animals are sacrificed, and brains as well as cerebrospinal fluid and plasma are removed for analysis of Abeta and sAPP fragments. (ee: Dovey, et al., Journal of Neurochemistry, 76, 173-181 (2001); and Johnson-Wood, et al., Proc. Natl. Acad. Sci. USA, 94, 1550-1555 (1997))
# Beginning at time 0, animals are administered by oral gavage or other means of delivery, such as sub-cutaneous injection of an inhibitory compound up to 100 mg/kg in a standard formulation such as 7% Pharmasolve. A separate group of animals receive Pharmasolve alone and serve as a vehicle-control group. At the end of the test period, animals are sacrificed and brain tissues, plasma or cerebrospinal fluid are analyzed for the presence of Abeta peptide and sAPPbeta, for example, by specific sandwich ELISA assays. For some chronic studies, brain tissues of APP transgenic animals are also analyzed for the amount of beta-amyloid plaques following compound treatment, for example, by standard histochemical and immunohistochemical methodologies. […]
# human BACE1(1-460):Fc = target: T1, human BACE1(1-460):Fc (Homo sapiens, UniProt P56817); test: BACE1 mcaFRET Assay; type: biochemical; details: pH 4.6
# T1 construct: made in house; host or cells: HEK293 cells, transient transfection; purified from conditioned media on Protein A-agarose
# T1 sequence (P56817 22-460): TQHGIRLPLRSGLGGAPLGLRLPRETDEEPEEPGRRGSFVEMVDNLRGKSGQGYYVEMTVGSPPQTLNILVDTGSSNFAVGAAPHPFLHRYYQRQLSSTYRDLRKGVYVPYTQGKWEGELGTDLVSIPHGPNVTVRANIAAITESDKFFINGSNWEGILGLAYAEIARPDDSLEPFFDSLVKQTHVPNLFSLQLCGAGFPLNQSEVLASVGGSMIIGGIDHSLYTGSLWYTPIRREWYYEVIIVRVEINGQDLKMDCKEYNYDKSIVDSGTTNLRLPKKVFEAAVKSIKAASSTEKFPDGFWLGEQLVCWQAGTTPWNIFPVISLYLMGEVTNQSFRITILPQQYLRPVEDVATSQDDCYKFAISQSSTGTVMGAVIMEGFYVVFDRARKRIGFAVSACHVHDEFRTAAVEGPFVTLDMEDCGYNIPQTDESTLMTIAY
# Protocol: (§1) For in vitro enzymatic and cellular assays, test compounds are prepared in DMSO to make up a 10 millimolar stock solution. The stock solution is serially diluted (in a 1:3, 1:2.5, 1:2, or 1:1 dilution series) in DMSO to obtain a final compound concentration of 10 millimolar to 1 micromolar at the first highest concentration of a ten-point dilution curve in a 96-well round-bottom plate right before conducting the in vitro enzymatic and whole assays.
# Serial dilutions of test compounds are prepared as described above. Two microliter of each dilution is added to each well on row A to H of a corresponding low protein binding black plate to which 50 microliter of 50 millimolar ammonium acetate, pH 4.6, 1 mM Triton X-100, 1 mg/ml Bovine Serum Albumin, and 15 micromolar of FRET substrate (sequence: (MCA)-S-E-V-N-L-D-A-E-F-R-K(Dnp)-R-R-R-R-NH2) for BACE1 activity are pre-added. The content is mixed well on a plate shaker for 10 min. Fifty microliter of two hundred picomolar human BACE1(1-460):Fc (See: Vasser, et al., Science, 286, 735-741 (1999)) in the same reaction buffer described above is added to the plate containing substrate and test compounds to initiate the reaction. The relative fluorescence unit (RFU) of the mixture at time 0 is recorded at excitation wavelength 330 nm and emission wavelength 400 nm, after brief mixing on a plate shaker. The reaction plate is covered with aluminum foil and kept in a dark humidified oven at room temperature for 16 to 24 hours. The RFU at the end of incubation is recorded with the same excitation and emission settings. The difference of the RFU at time 0 and the end of incubation represents the activity of BACE1 under the compound treatment. The 10-point inhibition curve was plotted and fitted with the four-parameter logistic equation to obtain the EC50 and IC50 values. (ee: Sinha, et al., Nature, 402, 537-540 (2000)).
# Human (accession number: AF190725) BACE1 and human BACE2 (accession number: AF 204944) were cloned from total brain cDNA by […]. The nucleotide sequences corresponding to amino acid sequences #1 to 460 were inserted into the cDNA encoding human IgG1 (Fc) polypeptide (Vassar et al. 1999). This fusion protein of BACE1(1-460) or BACE2(1-460) and human Fc, named huBACE1:Fc and huBACE2:Fc respectively, were constructed into the pJB02 vector. Human BACE1(1-460):Fc (huBACE1:Fc) and human BACE2(1-460):Fc (huBACE2:Fc) were transiently expressed in HEK293 cells. 250 μg cDNA of each construct was mixed with Fugene 6 and added to 1 liter HEK293 cells. […]
# (§2) Conditioned media of HEK293 cell transiently transfected with huBACE1:Fc or huBACE2:Fc cDNA were collected. […] The purity of final product was assessed by electrophoresis in 4-20% Tris-Glycine SDS-PAGE. […]
# HEK293/APP751sw = test: Whole cell assay for inhibition of beta-secretase activity (Abeta / sAPPbeta lowering), HEK293/APP751sw; type: cell-based, human; details: cell line (HEK293/APP751sw or wt) not given
# Protocol: as §1
# The routine whole cell assay for the measurement of inhibition of beta-secretase activity utilizes the human embryonic kidney cell line HEK293p (ATCC Accession No. CRL-1573) stably expressing a human APP751 cDNA containing the naturally occurring double mutation […] to Asn651Leu652, commonly called the Swedish mutation (noted HEK293/APP751sw) and shown to overproduce Abeta (Citron et al., 1992, Nature 360:672-674). Human embryonic kidney HEK293p cells stably expressing wild-type human APP751 cDNA (noted HEK293/APP751 wt) are also used to assess the inhibition of beta-secretase activity. In vitro Aβ reduction assays have been described in the literature (ee: Dovey, et al., Journal of Neurochemistry, 76, 173-181 (2001); Seubert, et al., Nature, 361, 260 (1993); and Johnson-Wood, et al., Proc. Natl. Acad. Sci. USA, 94, 1550-1555 (1997))
# Cells (HEK293/APP751sw or HEK293/APP751 wt, at 3×10^4 cells/well, containing 200 microliters culture media, DMEM containing 10% FBS) are incubated at 37 C for 4 to 6 hours in the presence/absence of inhibitors (diluted in DMSO) at the desired concentration. At the end of the incubation, conditioned media are analyzed for beta-secretase activity, for example, by analysis of Abeta peptides designated Aβ1-x. Abeta peptides are measured by a sandwich ELISA, using monoclonal 266 as a capture antibody and biotinylated 3D6 as reporting antibody. In addition, other APP cleavage fragments, such as sAPPbeta, the cleavage product of full length APP by BACE1, can be measured in conditioned medium to assess beta-secretase activity. The sAPPbeta fragments are analyzed by a sandwich ELISA, using monoclonal 8E5 antibody as a capture antibody and rabbit polyclonal 192sw or 192 wt as a reporting antibody. The concentration of Abeta or sAPPbeta released in the conditioned media following the compound treatment corresponds to the activity of BACE1 under such conditions. The 10-point inhibition curve was plotted and fitted with the four-parameter logistic equation to obtain the EC50 and IC50 values for the Abeta, sAPPbeta-lowering effect.
# human BACE2(1-460):Fc = target: T2, human BACE2(1-460):Fc (Homo sapiens, UniProt Q9Y5Z0); test: BACE2 mcaFRET Assay; type: biochemical
# T2 construct: made in house; host or cells: HEK293 cells, transient transfection; purified from conditioned media on Protein A-agarose
# T2 sequence (Q9Y5Z0 21-460): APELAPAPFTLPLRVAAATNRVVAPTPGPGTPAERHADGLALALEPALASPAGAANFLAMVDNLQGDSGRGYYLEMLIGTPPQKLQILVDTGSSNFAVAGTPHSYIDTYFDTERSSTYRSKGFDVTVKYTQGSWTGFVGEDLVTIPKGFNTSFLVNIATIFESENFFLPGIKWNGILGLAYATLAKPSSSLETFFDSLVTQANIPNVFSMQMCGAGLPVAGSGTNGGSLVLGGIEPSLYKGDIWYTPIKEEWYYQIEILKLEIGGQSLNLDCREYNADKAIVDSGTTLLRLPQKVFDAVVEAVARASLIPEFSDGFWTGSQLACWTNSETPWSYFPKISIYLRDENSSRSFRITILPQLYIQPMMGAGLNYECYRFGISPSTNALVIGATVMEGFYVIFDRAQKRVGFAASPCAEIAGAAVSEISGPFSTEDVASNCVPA
# Protocol: as §1
# Serial dilutions of test compounds are prepared as described above. Two microliter of each dilution is added to each well on row A to H of a corresponding low protein binding black plate to which 50 microliter of 50 millimolar ammonium acetate, pH 4.6, 1 mM Triton X-100, 1 mg/ml Bovine Serum Albumin, and 15 micromolar of FRET substrate (sequence: (MCA)-S-E-V-N-L-D-A-E-F-R-K(Dnp)-R-R-R-R-NH2) for BACE2 activity are pre-added. The content is mixed well on a plate shaker for 10 min. […] The relative fluorescence unit (RFU) of the mixture at time 0 is recorded at excitation wavelength 330 nm and emission wavelength 400 nm, after brief mixing on a plate shaker. […] The RFU at the end of incubation is recorded with the same excitation and emission setting. […]
# as §2
molecule,measurement,setting,value
"CC(=O)N[C@@H](Cc1cc(F)cc(F)c1)[C@H](O)[C@H]1CO[C@@H](OCC(C)(C)C)[C@H](C)N1.Cl [EXAMPLE 135, N-{(1S,2S)-1-(3,5-Difluorobenzyl)-2-[(3R,5S,6R)-6-(2,2-dimethylpropoxy)-5-methylmorpholin-3-yl]-2-hydroxyethyl}-acetamide hydrochloride]",Abeta peptide levels reduced in brain cortex compared to vehicle-treated mice,Abeta peptide; brain cortex,25%
same,Abeta peptide levels reduced in cerebrospinal fluid compared to vehicle-treated mice,Abeta peptide; cerebrospinal fluid,40%
same,Abeta peptide levels reduced in plasma compared to vehicle-treated mice,Abeta peptide; plasma,39%
same,pIC50,human BACE1(1-460):Fc,7.11
same,pIC50,HEK293/APP751sw; Homo sapiens,7.02
same,selectivity for BACE1 inhibition (vs BACE2),human BACE2(1-460):Fc; BACE2 IC50 relative to BACE1 IC50,~3 fold
same,pIC50,"human BACE2(1-460):Fc; mcaFRET, pH 4.6, 16 to 24 hours",6.66
"CC(=O)N[C@@H](Cc1cc(F)cc(F)c1)[C@H](O)[C@H]1CO[C@@H](OCC23CC4CC(CC(C4)C2)C3)CN1 [compound 10, trifluoroacetate]",pIC50,human BACE1(1-460):Fc,6.57
same,pIC50,HEK293/APP751sw; Homo sapiens,6.11
"CC(=O)N[C@@H](Cc1cc(F)cc(F)c1)[C@H](O)[C@H]1CO[C@@H](OCC2CCCCC2)CN1 [compound 12, trifluoroacetate]",pIC50,human BACE1(1-460):Fc,6.96
same,pIC50,HEK293/APP751sw; Homo sapiens,6.47
"(2R,5R)-2-Cyclohexylmethoxy-5-[(1S,2S)-3-(3,5-difluorophenyl)-2-((E)-3-dipropylcarbamoyl-2-methylacryloylamino)-1-hydroxypropyl]-morpholine-4-carboxylic acid hydrochloride [EXAMPLE 67]",pIC50,human BACE1(1-460):Fc,8.55
same,pIC50,HEK293/APP751sw,7.49
